According to patent US11827628B2, “Compositions and methods for inhibition of the JAK pathway” (Rigel Pharmaceuticals, Inc., priority 2005, dated 2023):
pIC50: −log10 of the molar value. Counter-ions that a name gives are not always drawn. Like-named read-outs stand apart in the source and are kept apart here.

Columns and labels:
[1] = test system: IL-4 stimulated expression of CD23 in human Ramos B cells (JAK-1 and JAK-3); assay: Assay for Ramos B-Cell Line Stimulated with IL-4 (CD23 upregulation, FACS); format: cell-based; conditions: read-out: IC50, Example 41
In short: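 Read-out is surface CD23 by FACS after anti-CD23-PE staining, giving IC50. Before this, cells were stimulated 20-24 h with 50 units/mL (final) human IL-4, following 1 h compound or vehicle pre-treatment at 37 °C; log-phase Ramos B cells, 5×10^4 per well in 5% serum RPMI.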

Primary human T-cells = assay: Primary Human T-Cell Proliferation Assay Stimulated with IL-2 (CellTiter-Glo); format: cell-based; conditions: read-out: IC50, Example 42
From the text: The activity of the active compounds of the invention may further be characterized by assaying the effect of the 2,4-substituted pyrimidinediamine compounds described herein on the proliferative response of primary human T-cells. In this assay, primary human T-cells derived from peripheral blood and pre-activated through stimulation of the T-cell receptor and CD28, proliferate in culture in response to the cytokine Interleukin-2 (IL-2). This proliferative response is dependent on the activation of JAK1 and JAK3 tyrosine kinases, which phosphorylate and activate the transcription factor Stat-5. The primary human T-cells are incubated with the 2,4-substituted pyrimidinediamine compounds in the presence of IL-2 for 72 hours and at the assay endpoint intracellular ATP concentrations are measured to assess cell viability. A reduction in cell proliferation compared to control conditions is indicative of inhibition of the JAK kinase pathway. An exemplary assay of this type is described in greater detail in Example 42
Primary human T-cells derived from peripheral blood and pre-activated through stimulation of the T-cell receptor and CD28, proliferate in vitro in response to the cytokine Interleukin-2 (IL-2). This proliferative response is dependent on the activation of JAK-1 and JAK-3 tyrosine kinases, which phosphorylate and activate the transcription factor Stat-5.
Human primary T cells were prepared as follows. Whole blood was obtained from a healthy volunteer, mixed 1:1 with PBS, layered on to Ficoll Hypaque (Amersham Pharmacia Biotech, Piscataway, NJ, Catalog #17-1440-03) in 2:1 blood/PBS:ficoll ratio and centrifuged for 30 min at 4° C. at 1750 rpm. The lymphocytes at the serum: ficoll interface were recovered and washed twice with 5 volumes of PBS. The cells were resuspended in Yssel's medium (Gemini Bio-products, Woodland, CA, Catalog #400-103) containing 40 U/mL recombinant IL2 (R and D Systems, Minneapolis, MN, Catalog #202-IL (20 rig)) and seeded into a flask pre-coated with 1 μg/mL anti-CD3 (BD Pharmingen, San Diego, CA, Catalog #555336) and 5 μg/mL anti-CD28 (Immunotech, Beckman Coulter of Brea CA, Catalog #IM1376). The primary T-cells were stimulated for 3-4 days, then transferred to a fresh flask and maintained in RPMI with 10% FBS and 40 U/mL IL-2.
Primary T-cells were washed twice with PBS to remove the IL-2 and resuspended in Yssel's medium at 2×10^6 cells/mL. 50 μL of cell suspension containing 80 U/mL IL-2 was added to each well of a flat bottom 96 well black plate. For the unstimulated control, IL-2 was omitted from the last column on the plate. Compounds were serially diluted in dimethyl sulfoxide (DMSO, 99.7% pure, cell culture tested, Sigma-Aldrich, St. Louis, MO, Catalog No. D2650) from 5 mM in 3-fold dilutions, and then diluted 1:250 in Yssel's medium. 50 μL of 2× compound was added per well in duplicate and the cells were allowed to proliferate for 72 hours at 37° C.
Proliferation was measured using CellTiter-Glo® Luminescent Cell Viability Assay (Promega), which determines the number of viable cells in culture based on quantitation of the ATP present, as an indicator of metabolically active cells. The substrate was thawed and allowed to come to room temperature. After mixing the Cell Titer-Glo reagent and diluent together, 100 μL was added to each well. The plates were mixed on an orbital shaker for two minutes to induce lysis and incubated at room temperature for an additional ten minutes to allow the signal to equilibrate. Detection was performed using a Wallac Victor2 1420 multilabel counter purchased from Perkin Elmer, Shelton, CT The IC50 calculated based on the results of this assay are provided in TABLE XII.

[2] = Ramos B-cell line stimulated with IL-4, CD23 expression by FACS
[3] = primary human T-cell proliferation stimulated with IL-2
[4] = Ramos B cells stimulated with IL-4, CD23 expression by FACS
[5] = primary human T-cells stimulated with IL-2, proliferation
[6] = Homo sapiens, Ramos, Ramos B cells stimulated with IL-4, CD23 expression by FACS
[7] = Homo sapiens, T-cell, primary human T-cells stimulated with IL-2, proliferation
[8] = Homo sapiens, T-cell, primary human T-cell proliferation stimulated with IL-2

| pIC50 [1, 2] | pIC50 [1, 6] | Molecule | pIC50 (Primary human T-cells; [3]) | pIC50 (Primary human T-cells; [7]) | further results |
| --- | --- | --- | --- | --- | --- |
| 6.74 | – | CCn1nccc1NC(=O)Cc1ccc(Nc2nc(Nc3ccc(C)c(S(N)(=O)=O)c3)ncc2F)cc1 [III-52, N2-(3-Aminosulfonyl-4-methylphenyl)-5-N4-[(1-ethylpyrazolyl-5-aminocarbonylmethylene)phenyl]-5-fluoro-2,4-pyrimidinediamine] | 5.92 | – | – |
| 6.57 | – | COc1cc(Nc2nc(Nc3ccc(C)c(S(N)(=O)=O)c3)ncc2F)ccc1CCC#N [III-25, N2-(3-Aminosulfonyl-4-methylphenyl)-N4-(4-cyanoethylene-3-methoxyphenyl)-5-fluoro-2,4-pyrimidinediamine] | 5.90 | – | – |
| – | – | N#Cc1cc2cc(Nc3nc(Nc4ccc(Cl)c(S(N)(=O)=O)c4)ncc3F)ccc2o1 [IX-21] | – | – | pIC50 [1, 4]: 6.57; pIC50 (Primary human T-cells; [5]): 5.56 |
| 6.59 | – | Cc1cc(Nc2nc(Nc3ccc(S(N)(=O)=O)cc3)ncc2F)ccc1OCc1ccccn1 [Compound I-176, N2-(4-Aminosulfonylphenyl)-5-fluoro-N4-[4-(2-pyridinyl)-3-methylmethyleneoxyphenyl]-2,4-pyrimidinediamine] | 5.77 | – | – |
| – | 6.53 | CC(C)c1ccc(Nc2ncc(F)c(Nc3ccc4oc(C#N)cc4c3)n2)cc1S(N)(=O)=O [IX-22, N2-(3-Aminosulfonyl-4-iso-propylphenyl)-N4-(2-cyanobenzofuran-5-yl)-5-fluoro-2,4-pyrimidinediamine] | – | 5.80 | – |
| – | 6.70 | C#CCOc1cccc(Nc2nc(Nc3ccc(C)c(S(N)(=O)=O)c3)ncc2F)c1 [VI-57, N2-(3-Aminosulfonyl-4-methylphenyl)-5-fluoro-N4-[3-(prop-2-ynyloxy)phenyl]-2,4-pyrimidinediamine] | – | 5.93 | – |
| – | 7.35 | Cc1cnc(Nc2ccc(S(N)(=O)=O)cc2)nc1Nc1ccc2c(c1)N(C)C(=O)CS2 [VII-34, N2-(4-Aminosulphonylphenyl)-5-methyl-N4-(4-methyl-3-oxo-benzo[1,4]thiazin-6-yl)-2,4-pyrimidinediamine] | – | 7.65 | – |
| 5.26 | – | CCC(=O)NS(=O)(=O)c1cc(Nc2ncc(F)c(Nc3ccc(OCC#N)cc3)n2)ccc1C [Compound I-30, N4-(4-Cyanomethyleneoxy)phenyl-5-fluoro-N2-(4-methyl-3-propionylaminosulfonyl)phenyl-2,4-pyrimidinediamine] | 5.45 | – | – |
| – | 6.41 | Cc1ccc(Nc2ncc(F)c(Nc3cnc4ccccc4c3)n2)cc1S(N)(=O)=O [VII-65, N2-(3-Aminosulfonyl-4-methylphenyl)-5-fluoro-N4-(quinolin-3-yl)-2,4-pyrimidinediamine] | – | 5.51 | – |
| – | 6.80 | CC(C)(C)c1ccc(Nc2nc(Nc3cccc(S(N)(=O)=O)c3)ncc2F)cc1 [VI-35, N2-(3-Aminosulfonylphenyl)-N4-(4-tert-butylphenyl)-5-fluoro-2,4-pyrimidinediamine] | – | 5.90 | – |
| – | 7.33 | CN1C(=O)COc2ccc(Nc3nc(Nc4cccc(S(N)(=O)=O)c4)ncc3F)cc21 [VII-41, N2-(3-Aminosulfonylphenyl)-5-fluoro-N4-(4-methyl-3-oxo-benz[1,4]oxazin-6-yl)-2,4-pyrimidinediamine] | – | 6.58 | – |
| – | 7.16 | Cc1ccc(Nc2nc(Nc3cccc(S(N)(=O)=O)c3)ncc2F)cc1C#N [VI-99, N2-(3-Aminosulfonylphenyl)-N4-(3-cyano-4-methylphenyl)-5-fluoro-2,4-pyrimidinediamine] | – | 6.21 | – |
| 6.34 | – | Cc1ccc(Nc2ncc(F)c(Nc3ccc(NC(=O)CC#N)cc3)n2)cc1S(N)(=O)=O [Compound I-79, N2-(3-Aminosulfonyl-4-methylphenyl)-N4-[4-(N-cyanoacetyl)aminophneyl]-5-fluoro-2,4-pyrimidinediamine] | 5.97 | – | – |
| 6.44 | – | Cc1cc(Nc2nc(Nc3cccc(S(N)(=O)=O)c3)ncc2F)ccc1NC(=O)CC#N [Compound I-80, N2-(3-Aminosulfonylphenyl)-5-fluoroN4-[3-methyl-4-(N-cyanoacetyl)aminophneyl]-2,4-pyrimidinediamine] | 6.33 | – | – |
| – | 6.84 | COc1ccc(Nc2nc(Nc3ccc(Cl)c(S(=O)(=O)NC(C)=O)c3)ncc2F)cc1Cl [VI-12, N2-[3-(N-Acetyl)aminosulfonyl-4-chlorophenyl]-N4-(3-chloro-4-methoxyphenyl)-5-fluoro-2,4-pyrimidinediamine] | – | 5.88 | – |
| – | 6.66 | NS(=O)(=O)c1ccc(Nc2ncc(F)c(Nc3ccc(CCCCF)cc3)n2)cc1 [VI-91, N2-(4-Aminosulfonylphenyl)-5-fluoro-N4-[4-(4-fluorobutyl)phenyl]-2,4-pyrimidinediamine] | – | 5.91 | – |
| – | – | CC(C)(C)OC(=O)NC1CCOc2ccc(Nc3nc(Nc4ccc(S(N)(=O)=O)cc4)ncc3F)cc21 (stereo not drawn) [VII-59, N2-(4-Aminosulfonylphenyl)-N4-(4-N-tert-butoxycarbonylamino-3,4-dihydro-2H-1-benzopyran-6-yl)-5-fluoro-2,4-pyrimidinediamine] | – | – | pIC50 [1, 4]: 6.08; pIC50 (Primary human T-cells; [5]): 5.52 |
| – | – | CCC(=O)NS(=O)(=O)c1cc(Nc2ncc(F)c(Nc3ccc(OCC#N)c(F)c3)n2)ccc1C [Compound I-49, N4-(4-Cyanomethoxy-3-fluorophenyl)-5-fluoro-N2-(4-methyl-3-propionylaminosulfonylphenyl)-2,4-pyrimidinediamine Sodium Salt] | – | – | pIC50 ([1]; Ramos B-cell line stimulated with IL-4, CD23 expression by FACS, sodium salt): 5.63; pIC50 (Primary human T-cells; [8]): 5.25 |
| – | 6.18 | CCNC(=O)NCc1ccc(Nc2nc(Nc3cccc(S(N)(=O)=O)c3)ncc2F)cc1 [III-120, N2-(3-Aminosulfonylphenyl]-N4-(4-ethylaminocarbonylaminomethylphenyl)-5-fluoro-2,4-pyrimidinediamine] | – | 6.26 | – |
| – | – | NS(=O)(=O)c1cccc(Nc2ncc(F)c(Nc3ccc(Oc4ccncc4)cc3)n2)c1 [II-17, N2-(3-Aminosulfonylphenyl)-5-fluoro-N4-[4-(4-pyridyloxy)phenyl]-2,4-pyrimidinediamine] | – | – | pIC50 ([1]; Homo sapiens, Ramos, Ramos B-cell line stimulated with IL-4, CD23 expression by FACS): 4.67; pIC50 (Primary human T-cells; [8]): 5.09 |
| 5.43 | – | CCC(=O)NS(=O)(=O)c1cc(Nc2ncc(F)c(Nc3ccc(C=CC#N)c(Cl)c3)n2)ccc1C [III-28, N4-(3-Chloro-4-cyanoethylene-phenyl)-5-fluoro-N2-(4-methyl-3-propionylaminosulfonylphenyl)-2,4-pyrimidinediamine] | 4.76 | – | – |
| – | – | CCCN(Cc1ccc(Nc2nc(Nc3cccc(S(N)(=O)=O)c3)ncc2F)cc1)C(N)=O [III-126, N2-(3-aminosulfonyl)phenyl-N4-[4-(N-carbamoyl-N-propyl)aminomethyl]phenyl-5-fluoro-2,4-pyrimidinediamine] | – | – | pIC50 [1, 4]: 6.71; pIC50 (Primary human T-cells; [5]): 6.33 |
| – | 6.40 | COc1ccc(Nc2nc(Nc3ccc(Cl)c(S(N)(=O)=O)c3)ncc2F)nc1N [VII-8, N2-(3-Aminosulfonyl-4-chlorophenyl)-N4-(2-amino-3-methoxypyrid-6-yl)-5-fluoro-2,4-pyrimidinediamine] | – | 5.06 | – |

| Molecule | pIC50 [1, 2] | pIC50 [1, 6] | pIC50 (Primary human T-cells; [3]) | pIC50 (Primary human T-cells; [7]) | further results |
| --- | --- | --- | --- | --- | --- |
| N2-(3-Aminosulfonyl-4-methoxy-5-methylphenyl)-N4-(4-benzylphenyl)-5-fluoro-2,4-pyrimidinediamine [III-65] | 6.68 | – | 6.03 | – | – |
